Data from patent US4789667A, “External pharmaceutical composition and methods of use” (priority 1984, dated 1988).
Read-outs that look alike come from different tables or passages of the source.

Columns and labels:
[1] = tested on: carrageenan-induced edema; assay: Carrageenan-induced edema inhibiting effect of betamethasone valerate ointment; assay type: in vivo; conditions: rat paw, 0.15 part betamethasone valerate, 9.85 parts enhancer, vs gel ointment base
Method: The carrageenan-induced edema inhibiting effect of the ointment was examined in accordance with the method of E. Passarella [Arzneim, Forsch. 30 (I), No. 4, pages 647-651 (1980)]. Specifically, 0.1 ml of a 1% carrageenan suspension in 0.9% NaCl solution was injected into the tip of the right paw of each rat (body weight 150-175 g). The volume of the paw was measured before the administation of carrageenan and 3, 5 and 6 hours after the carrageenan administration by a mercury displacement device. The ointment was well rubbed into the inflamed site in an amount of 100 mg.
These ointments were applied to the tip of the paw, and their edema inhibiting effects were examined.
The percent edema inhibitions were calculated on the basis of the edema formation ratio of a rat to which only the gel ointment base was administered.

[2] = tested on: serum calcium level; assay type: in vivo
[3] = Drug diffusion through egg shell membrane in diffusion cell with dodecyl L-pyroglutamate; conditions: control without enhancer = 100; drug 0.05%, dodecyl L-pyroglutamate 1.0% in donor side, 37° C
[4] = tested on: serum calcium level; assay: Serum calcium after intrarectal (Asu^1.7)-eel calcitonin suppository in rats; assay type: in vivo; conditions: rat, 0.7 MRC unit calcitonin, 7 parts enhancer
Method: (Asu^1.7)-eel calcitonin was gradually added and mixed with the mixture to form a uniform composition. The composition was slightly warmed, and filled into a suppository container to form a suppository for rats having a diameter of about 3 mm and a length of about 8 mm. This suppository contained 0.7 MRC unit of calcitonin. The suppository was intrarectally administered to a rat, and the concentration of calcium in the blood serum after administration was measured by using a calcium measuring kit (made by Iatoron Co.).
For comparison, suppositories (Comparisons 76 to 87) composed of 93 parts of cacao butter, 7 parts of the various pyroglutamates shown in Table 6 and caltitonin and a suppository composed only of cacao butter and caltitonin (Comparison 88) were prepared. They wre individually administered intrarectally to rats, and the calcium concentration in the serum was measured.

[5] = tested on: blood glucose level; assay: Blood glucose after intrarectal hog insulin gelatin capsular suppository in rabbits; assay type: in vivo; conditions: rabbit, 9.6 units insulin, 10 parts enhancer
Method: Fractionated coconut oil (90 parts) and 10 parts of each of the various pyroglutamates indicated in Table 7 were uniformly mixed, and then hog insulin was gradually added to form a uniform dispersion. The dispersion was filled in a gelatin capsule for suppositoes to form a gelatin capsular suppository. The suppository contained 9.6 units of insulin. The suppository was intrarectally administered to a rabbit and the blood glucose level after administration was measured by the glucose oxidase method.
For comparison, suppositories composed of 90 parts of fractionated coconut oil, 10 parts of the various pyroglutamates indicated in Table 7 (Comparisons 89 to 102) and insulin, and a suppository composed only of fractionated coconut oil and insulin (Comparison 103) were prepared, and tested in the same way as above.

[6] = dog, in vivo

Question: For `O=C1CCC(C(=O)O)N1` (racemic) [DL-Pyroglutamic acid], which Edema inhibition ([1]; 3 hrs.) is on record?
Answer: Its Edema inhibition is 10.8%.

Question: What about the Edema inhibition ([1]; 6 hrs.) of the same compound?
Answer: The Edema inhibition was 11.4%.

Question: And the Edema inhibition ([1]; 9 hrs.)?
Answer: Its Edema inhibition is 15.2%.

Question: And the “Percent decrease of the serum calcium level from that before administration” value ([2]; 1 h)?
Answer: Its value is 2.0%.

Question: And the “Percent decrease of the serum calcium level from that before administration” value ([2]; 2 h)?
Answer: The value was 1.0%.

Question: What about the “Percent decrease of the serum calcium level from that before administration” value ([2]; 3 h) of the same compound?
Answer: The value was 0%.

Question: What about the “Percent decrease of the serum calcium level from that before administration” value ([2]; 5 h) of the same compound?
Answer: Its value is 0%.

Question: For `CN(C)CCCN1c2ccccc2Sc2ccc(Cl)cc21` [Chlorpromazine], which “Relative amount of permeation after 30 minutes” value (“Relative amount of permeation” below) [3] is on record?
Answer: The value was 124.

Question: For `CC(C)=CCCC(C)CCOC(=O)[C@@H]1CCC(=O)N1` (stereo partly drawn) [Compound (224), Citronyl L-pyroglutamate], which “Percent decrease of the serum calcium level from that before administration” value ([4]; 1 hr.) is on record?
Answer: The value was 29.2%.

Question: And the “Percent decrease of the serum calcium level from that before administration” value ([4]; 2 hrs.)?
Answer: The value was 26.7%.

Question: What about the “Percent decrease of the serum calcium level from that before administration” value ([4]; 3 hrs.) of the same compound?
Answer: Its value is 11.4%.

Question: And the “Percent decrease of the serum calcium level from that before administration” value ([4]; 5 hrs.)?
Answer: The value was 0.9%.

Question: What about the “Percent decrease of the blood glucose level from that before administration” value ([5]; 30 min.) of the same compound?
Answer: The value was 29.2%.

Question: What about the “Percent decrease of the blood glucose level from that before administration” value ([5]; 1 hr.) of the same compound?
Answer: Its value is 32.1%.

Question: What about the “Percent decrease of the blood glucose level from that before administration” value ([5]; 2 hrs.) of the same compound?
Answer: The value was 18.5%.

Question: And the “Percent decrease of the blood glucose level from that before administration” value ([5]; 3 hrs.)?
Answer: The value was 3.1%.

Question: And the Edema inhibition ([1]; 3 hrs.)?
Answer: Its Edema inhibition is 19.5%.

Question: And the Edema inhibition ([1]; 6 hrs.)?
Answer: Its Edema inhibition is 38.8%.

Question: And the Edema inhibition ([1]; 9 hrs.)?
Answer: Its Edema inhibition is 38.5%.

Question: What about the “Percent decrease of the serum calcium level from that before administration” value ([2]; 1 hr., rabbit, nasal, 15 units/50 microliters calcitonin, 10 parts enhancer) of the same compound?
Answer: The value was 9.0%.

Question: And the “Percent decrease of the serum calcium level from that before administration” value ([2]; 2 hrs., rabbit, nasal, 15 units/50 microliters calcitonin, 10 parts enhancer)?
Answer: Its value is 6.3%.

Question: What about the “Percent decrease of the serum calcium level from that before administration” value ([2]; 3 hrs., rabbit, nasal, 15 units/50 microliters calcitonin, 10 parts enhancer) of the same compound?
Answer: The value was 2.2%.

Question: What about the “Percent decrease of the serum calcium level from that before administration” value ([2]; 5 hrs., rabbit, nasal, 15 units/50 microliters calcitonin, 10 parts enhancer) of the same compound?
Answer: Its value is 0.6%.

Question: What about the “Concentration of cephalothin sodium in the blood” value (shortened to “Concentration”) ([6]; 60 min) of the same compound?
Answer: Its value is 300 ng/mL.

Question: And the “Concentration” value ([6]; 180 min)?
Answer: Its value is 400 ng/mL.

Question: And the “Concentration” value ([6]; 300 min)?
Answer: The value was 300 ng/mL.

Question: For `CCCCCCCCCCCCCCCCCCCCOC(=O)[C@@H]1CCC(=O)N1` [Eicosanyl L-pyroglutamate], which Edema inhibition ([1]; 3 hrs.) is on record?
Answer: Its Edema inhibition is 9.3%.

Question: What about the Edema inhibition ([1]; 6 hrs.) of the same compound?
Answer: The Edema inhibition was 10.5%.

Question: What about the Edema inhibition ([1]; 9 hrs.) of the same compound?
Answer: The Edema inhibition was 15.6%.

Question: With `C[C@]12CC[C@@H]3c4ccc(O)cc4CC[C@H]3[C@@H]1CC[C@@H]2O` [Estradiol] as the compound, how does the “Relative amount of permeation” value [3] read?
Answer: Its value is 203.

Question: Which results are given for `CCOC(=O)[C@@H]1CCC(=O)N1` [Ethyl L-pyroglutamate]?
Answer: Edema inhibition ([1]; 3 hrs.): 10.4%; Edema inhibition ([1]; 6 hrs.): 12.7%; Edema inhibition ([1]; 9 hrs.): 17.2%

Question: For `COC1=CC(=O)C[C@@H](C)[C@]12Oc1c(Cl)c(OC)cc(OC)c1C2=O` [Griseofulvin], which “Relative amount of permeation” value [3] is on record?
Answer: The value was 221.

Question: Which Edema inhibition ([1]; 3 hrs.) does the source give for `CCCCCCCCCCCCCCCCCOC(=O)[C@@H]1CCC(=O)N1` [Heptadecyl L-pyroglutamate] here?
Answer: The Edema inhibition was 11.2%.

Question: What about the Edema inhibition ([1]; 6 hrs.) of the same compound?
Answer: Its Edema inhibition is 10.6%.

Question: And the Edema inhibition ([1]; 9 hrs.)?
Answer: The Edema inhibition was 16.5%.

Question: Which results are given for `CCCCCCCOC(=O)[C@@H]1CCC(=O)N1` [Heptyl L-pyroglutamate]?
Answer: Edema inhibition ([1]; 3 hrs.): 9.3%; Edema inhibition ([1]; 6 hrs.): 12.8%; Edema inhibition ([1]; 9 hrs.): 13.7%

Question: Which Edema inhibition ([1]; 3 hrs.) does the source give for `CCCCCCOC(=O)[C@@H]1CCC(=O)N1` [Hexyl L-pyroglutamate] here?
Answer: Its Edema inhibition is 10.0%.

Question: And the Edema inhibition ([1]; 6 hrs.)?
Answer: The Edema inhibition was 11.5%.

Question: What about the Edema inhibition ([1]; 9 hrs.) of the same compound?
Answer: Its Edema inhibition is 13.8%.

Question: Which “Relative amount of permeation” value [3] does the source give for `COc1ccc2c(c1)c(CC(=O)O)c(C)n2C(=O)c1ccc(Cl)cc1` [Indomethacin] here?
Answer: Its value is 220.

Question: With `O=C1CC[C@@H](C(=O)O)N1` [L-Pyroglutamic acid] as the compound, how does the Edema inhibition ([1]; 3 hrs.) read?
Answer: The Edema inhibition was 10.3%.

Question: What about the Edema inhibition ([1]; 6 hrs.) of the same compound?
Answer: Its Edema inhibition is 11.2%.

Question: And the Edema inhibition ([1]; 9 hrs.)?
Answer: The Edema inhibition was 16.3%.

Question: And the “Percent decrease of the serum calcium level from that before administration” value ([2]; 1 h)?
Answer: The value was 1.9%.

Question: And the “Percent decrease of the serum calcium level from that before administration” value ([2]; 2 h)?
Answer: Its value is 0.7%.

Question: And the “Percent decrease of the serum calcium level from that before administration” value ([2]; 3 h)?
Answer: The value was 0%.

Question: What about the “Percent decrease of the serum calcium level from that before administration” value ([2]; 5 h) of the same compound?
Answer: The value was 0%.

Question: For `C[C@](N)(Cc1ccc(O)c(O)c1)C(=O)O` [Methyldopa], which “Relative amount of permeation” value [3] is on record?
Answer: Its value is 153.

Question: For `CCCCCCCCCCCCCCCCCCOC(=O)[C@@H]1CCC(=O)N1` [Octadecyl L-pyroglutamate], which Edema inhibition ([1]; 3 hrs.) is on record?
Answer: The Edema inhibition was 10.0%.

Question: What about the Edema inhibition ([1]; 6 hrs.) of the same compound?
Answer: The Edema inhibition was 11.4%.

Question: And the Edema inhibition ([1]; 9 hrs.)?
Answer: Its Edema inhibition is 14.4%.

Question: Which “Relative amount of permeation” value [3] does the source give for `CCCCC[C@H](O)/C=C/[C@@H]1[C@@H](C/C=C\CCCC(=O)O)[C@@H](O)C[C@H]1O` [Prostaglandin F2] here?
Answer: The value was 166.

Question: With `O=C(O)c1ccccc1O` [Salicyclic acid] as the compound, how does the “Relative amount of permeation” value [3] read?
Answer: The value was 208.
